Patent publication US20180085341A1, “METHODS FOR TREATING CANCER” (BOSTON BIOMEDICAL, INC., priority 2015, published 2018)
pIC50: −log10 of the molar value.

How the values were obtained:
[1] = test system: Stat3 pathway; conditions: cellular; according to U.S. Pat. No. 8,877,803; cited from earlier work
[2] = test system: p-Stat3 and β-catenin; test: cancer stemness biomarkers in human colon cancer xenograft tumor (SW480), immunofluorescence; format: in vivo; conditions: SW480 xenograft in nude mice, e.g. 50 mg/kg BID oral gavage, tumors harvested 24 hours after first dosing, FIG. 5
Method: The effects of 2-acetylnaphtho[2,3-b]furan-4,9-dione, a compound of formula (I), on cancer stem cell markers was examined in cancer xenograft models with and without paclitaxel.
Human cancer cells were subcutaneously implanted into the right flank of 5-7 weeks old female athymic nude mice. When tumor size reached 200 mm^3, animals were treated with 2-acetylnaphtho[2,3-b]furan-4,9-dione, for example, at 50 mg/kg (BID) by oral gavage (n=3/group), paclitaxel, or a combination of 2-acetylnaphtho[2,3-b]furan-4,9-dione and paclitaxel. Tumors were harvested at 24 hours after first dosing.
The harvested tissues were fixed in 3.7% neutral buffered formaldehyde at 4° C. for overnight. The paraffin was embedded, cut to about 5 microns, and affixed onto positively-charged slides. After being baked and de-paraffinized, the slides with tumor or control tissues were incubated in 10 mM sodium citrate (pH 6.0) for 10 minutes. After antigen retrieval, slides were probed with primary antibodies P-STAT3 (rabbit, Cell Signaling, 1:100), β-Catenine (mouse, Santa Cruz, 1:400) at 4° C. overnight, and then Alexa Fluor fluorescent dyes-conjugated secondary antibodies (1:500, Invitrogen). After mounting, the slides with ProLong mounting medium with DAPI (Invitrogen) were examined under a Zeiss fluorescence microscope with 20× objective, and analyzed with Zen software.

[3] = test system: cancer patients (CRC patients); test: clinical trials, survival by Stat3/pStat3 expression level; format: in vivo, human; conditions: after treatment in clinical trials; at least in CRC patients
Source text: Thus, the higher the level of pStat3 found in a cancer patient before treatment, at least in CRC patients, the higher the overall survival (OS) upon administering a treatment comprising a compound of formula (I).

[4] = open label phase Ib dose-escalation study, safety, tolerability and RP2D; format: in vivo, human; conditions: in combination with weekly paclitaxel
Method: In the open label phase lb dose-escalation study, the safety, tolerability and recommended phase 2 dose (RP2D) of 2-acetylnaphtho[2,3-b]furan-4,9-dione in combination with paclitaxel were assessed in adult patients with advanced solid tumors.
The effects of 2-acetylnaphtho[2,3-b]furan-4,9-dione in combination with paclitaxel were clinically evaluated. […] Phase II accrual to disease-specific cohorts included patients with advanced, heavily pre-treated metastatic non-small cell lung cancer (NSCLC).

[5] = test system: human lung cancer xenograft (A549); test: human lung cancer xenograft (A549) model, metabolic tumor volume; format: in vivo, mice; conditions: 2-acetylnaphtho[2,3-b]furan-4,9-dione 100 mg/kg daily oral, paclitaxel 10.0 mg/kg q3d iv, relative to control, FIG. 7
Method: The effects of 2-acetylnaphtho[2,3-b]furan-4,9-dione was examined in a human lung cancer xenograft (A549) model. Human lung cancer cells were implanted in mice and the resulting tumors were allowed to grow to a pre-determined size. Mice were treated orally with vehicle, 2-acetylnaphtho[2,3-b]furan-4,9-dione (100 mg/kg, daily, oral), paclitaxel (10.0 mg/kg, q3d, iv), or the combination of 2-acetylnaphtho[2,3-b]furan-4,9-dione (100 mg/kg, daily, oral) and paclitaxel (10.0 mg/kg, q3d, iv). The tumor sizes were monitored.

[6] = test system: patients with advanced, previously treated pancreatic adenocarcinoma; conditions: weekly paclitaxel alone; Oettle et al, Anticancer Drugs 2000; cited from earlier work
[7] = test system: pStat3 and β-catenin; test: cancer stemness biomarkers in pancreatic adenocarcinoma cancer stem cells (Panc-1) in vitro; format: cell-based, human; conditions: Panc-1 cancer stem cells, FIG. 6

| SMILES | pIC50 [1] | expression of p-Stat3 and β-catenin stem cell markers [2] | overall survival of patients with higher expression levels of Stat3 [3] | recommended phase 2 dose of 2-acetylnaphtho[2,3-b]furan-4,9-dione [4] | metabolic tumor volume [5] | median overall survival (mOS) [6] | staining for stem cell markers (pStat3, β-catenin) [7] |
| --- | --- | --- | --- | --- | --- | --- | --- |
| CC(=O)c1cc2c(o1)C(=O)c1ccccc1C2=O [2-acetylnaphtho[2,3-b]furan-4,9-dione] | ~6.60 | dramatically reduced expression | prolonged overall survival | 480 mg BID | reduced metabolic tumor volume relative to control |  |  |
| CC(=O)O[C@H]1C(=O)[C@@]2(C)[C@H]([C@H](OC(=O)c3ccccc3)[C@]3(O)C[C@H](OC(=O)[C@H](O)[C@@H](NC(=O)c4ccccc4)c4ccccc4)C(C)=C1C3(C)C)[C@]1(OC(C)=O)CO[C@@H]1C[C@@H]2O [paclitaxel] |  |  |  |  | reduced metabolic tumor volume relative to control | about 17.5 weeks | enhanced staining |
